Data: ChEMBL document CHEMBL4804281, “STK4 inhibitors for treatment of hematologic malignancies” (2020)
Active and inactive are the calls of the source. The calls are words filed in the database; no cut-off is given here.

Experiments:
[1] = system: NCI-H929; assay: Upregulation of YAP1 protein level in human NCI-H929 cells at 1 uM measured after 24 hrs by Western blot analysis; format: functional, cell-based
[2] = system: NCI-H929; assay: Upregulation of PUMA protein level in human NCI-H929 cells at 1 uM measured after 24 hrs by Western blot analysis; format: functional, cell-based
[3] = system: MM1.S; assay: Induction of apoptosis in human MM1.S cells assessed as late apoptotic cells measured after 48 hrs by annevxinV/FITC-propidium iodide staining based flow cytometry (reference value: 2.09 %); format: functional
[4] = system: NCI-H929; assay: Upregulation of p21 protein level in human NCI-H929 cells at 1 uM measured after 24 hrs by Western blot analysis; format: functional, cell-based
[5] = system: NCI-H929; assay: Induction of apoptosis in human NCI-H929 cells assessed as induction of PARP cleavage at 1 uM measured after 24 hrs by Western blot analysis; format: functional, cell-based
[6] = system: MM1.S; assay: Upregulation of YAP1 protein level in human MM1.S cells at 3 to 10 uM measured after 72 hrs by Western blot analysis; format: functional, cell-based; conditions: dose 3-10 µM
[7] = biological target: Mitogen-activated protein kinase kinase kinase kinase 3 (Homo sapiens) (UniProt Q8IVH8); assay: Inhibition of KHS2 in human NCI-H929 cells at 10 uM by mass spectroscopic analysis relative to control; format: cell-based
[8] = biological target: Mitogen-activated protein kinase 1 (Homo sapiens) (UniProt P28482); assay: Inhibition of ERK2 in human NCI-H929 cells at 10 uM by mass spectroscopic analysis relative to control; format: cell-based
[9] = biological target: Glycogen synthase kinase-3 beta (Homo sapiens) (UniProt P49841); assay: Inhibition of GSK3B in human NCI-H929 cells at 10 uM by mass spectroscopic analysis relative to control; format: cell-based
[10] = biological target: Phosphatidylinositol 5-phosphate 4-kinase type-2 alpha (Homo sapiens) (UniProt P48426); assay: Inhibition of PIP4K2A in human NCI-H929 cells at 10 uM by mass spectroscopic analysis relative to control; format: cell-based
[11] = biological target: Glycogen synthase kinase-3 alpha (Homo sapiens) (UniProt P49840); assay: Inhibition of GSK3A in human NCI-H929 cells at 10 uM by mass spectroscopic analysis relative to control; format: cell-based
[12] = biological target: Mitogen-activated protein kinase kinase kinase 1 (Homo sapiens) (UniProt Q13233); assay: Inhibition of MAP3K1 in human NCI-H929 cells at 10 uM by mass spectroscopic analysis relative to control; format: cell-based
[13] = biological target: T1, Serine/threonine-protein kinase 3 (Homo sapiens) (UniProt Q13188); assay: Inhibition of MST2 in human NCI-H929 cells at 10 uM by mass spectroscopic analysis relative to control; format: cell-based
T1 sequence (whole entry): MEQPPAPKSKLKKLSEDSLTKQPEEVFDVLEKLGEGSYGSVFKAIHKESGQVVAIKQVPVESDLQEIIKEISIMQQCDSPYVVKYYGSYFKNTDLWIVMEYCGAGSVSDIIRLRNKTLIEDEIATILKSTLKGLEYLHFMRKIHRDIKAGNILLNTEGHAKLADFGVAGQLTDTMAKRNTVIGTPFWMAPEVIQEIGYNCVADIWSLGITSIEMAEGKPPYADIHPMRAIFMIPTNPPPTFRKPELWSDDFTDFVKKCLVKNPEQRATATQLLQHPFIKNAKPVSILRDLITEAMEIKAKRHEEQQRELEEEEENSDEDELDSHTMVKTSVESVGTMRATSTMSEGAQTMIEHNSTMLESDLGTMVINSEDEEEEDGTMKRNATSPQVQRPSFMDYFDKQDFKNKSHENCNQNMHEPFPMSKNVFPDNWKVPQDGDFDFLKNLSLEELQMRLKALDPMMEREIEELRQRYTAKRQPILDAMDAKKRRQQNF

[14] = biological target: Mitogen-activated protein kinase kinase kinase 11 (Homo sapiens) (UniProt Q16584); assay: Inhibition of MLK3 in human NCI-H929 cells at 10 uM by mass spectroscopic analysis relative to control; format: cell-based
[15] = biological target: eIF-2-alpha kinase GCN2 (Homo sapiens) (UniProt Q9P2K8); assay: Inhibition of GCN2 domain 2 in human NCI-H929 cells at 10 uM by mass spectroscopic analysis relative to control; format: cell-based
[16] = biological target: Casein kinase I isoform alpha (Homo sapiens) (UniProt P48729); assay: Inhibition of CK1a in human NCI-H929 cells at 10 uM by mass spectroscopic analysis relative to control; format: cell-based
[17] = biological target: Scaffold protein ILK (Homo sapiens) (UniProt Q13418); assay: Inhibition of ILK in human NCI-H929 cells at 10 uM by mass spectroscopic analysis relative to control; format: cell-based
[18] = biological target: Phosphatidylinositol 5-phosphate 4-kinase type-2 gamma (Homo sapiens) (UniProt Q8TBX8); assay: Inhibition of PIP4K2C in human NCI-H929 cells at 10 uM by mass spectroscopic analysis relative to control; format: cell-based
[19] = biological target: Misshapen-like kinase 1 (Homo sapiens) (UniProt Q8N4C8); assay: Inhibition of MINK in human NCI-H929 cells by mass spectroscopic analysis; format: cell-based; conditions: concentration not given here
[20] = biological target: Serine/threonine-protein kinase Nek9 (Homo sapiens) (UniProt Q8TD19); assay: Inhibition of NEK9 in human NCI-H929 cells at 10 uM by mass spectroscopic analysis relative to control; format: cell-based
[21] = biological target: T2, Serine/threonine-protein kinase 4 (Homo sapiens) (UniProt Q13043); assay: Inhibition of MST1 in human NCI-H929 cells at 10 uM by mass spectroscopic analysis relative to control; format: cell-based
T2 sequence (whole entry): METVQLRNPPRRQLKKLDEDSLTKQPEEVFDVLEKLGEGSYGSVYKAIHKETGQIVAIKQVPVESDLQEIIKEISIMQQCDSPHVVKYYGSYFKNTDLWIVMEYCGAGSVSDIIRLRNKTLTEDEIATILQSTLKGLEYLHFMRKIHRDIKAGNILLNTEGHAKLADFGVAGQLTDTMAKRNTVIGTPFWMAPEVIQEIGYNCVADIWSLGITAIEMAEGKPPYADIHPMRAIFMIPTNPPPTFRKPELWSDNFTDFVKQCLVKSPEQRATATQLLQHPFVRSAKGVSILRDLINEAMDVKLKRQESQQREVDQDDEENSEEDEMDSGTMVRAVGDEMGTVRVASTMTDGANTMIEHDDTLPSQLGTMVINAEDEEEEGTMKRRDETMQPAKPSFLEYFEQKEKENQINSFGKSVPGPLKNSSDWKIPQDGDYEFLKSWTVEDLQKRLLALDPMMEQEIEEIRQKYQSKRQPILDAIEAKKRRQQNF

[22] = biological target: Ribosomal protein S6 kinase alpha-4 (Homo sapiens) (UniProt O75676); assay: Inhibition of MSK2 domain 1 in human NCI-H929 cells at 10 uM by mass spectroscopic analysis relative to control; format: cell-based
[23] = biological target: Maternal embryonic leucine zipper kinase (Homo sapiens) (UniProt Q14680); assay: Inhibition of MELK in human NCI-H929 cells at 10 uM by mass spectroscopic analysis relative to control; format: cell-based
[24] = biological target: Ribosomal protein S6 kinase alpha-3 (Homo sapiens) (UniProt P51812); assay: Inhibition of RSK2 domain 1 in human NCI-H929 cells at 10 uM by mass spectroscopic analysis relative to control; format: cell-based

Chain of Scaffold protein ILK (Homo sapiens) (Q13418 whole entry): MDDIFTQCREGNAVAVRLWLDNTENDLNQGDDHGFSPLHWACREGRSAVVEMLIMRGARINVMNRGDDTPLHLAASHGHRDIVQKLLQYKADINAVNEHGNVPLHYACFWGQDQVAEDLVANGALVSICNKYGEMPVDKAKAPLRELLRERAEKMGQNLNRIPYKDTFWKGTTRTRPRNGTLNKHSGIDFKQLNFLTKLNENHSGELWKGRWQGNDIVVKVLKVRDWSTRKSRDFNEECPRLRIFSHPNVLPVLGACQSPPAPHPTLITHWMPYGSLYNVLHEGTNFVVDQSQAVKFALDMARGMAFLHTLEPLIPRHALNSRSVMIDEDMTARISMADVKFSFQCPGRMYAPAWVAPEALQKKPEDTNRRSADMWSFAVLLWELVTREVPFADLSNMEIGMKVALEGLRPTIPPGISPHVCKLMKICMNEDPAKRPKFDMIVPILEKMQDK
Chain of Ribosomal protein S6 kinase alpha-4 (Homo sapiens) (O75676 whole entry, looked up, the tested form may be a part): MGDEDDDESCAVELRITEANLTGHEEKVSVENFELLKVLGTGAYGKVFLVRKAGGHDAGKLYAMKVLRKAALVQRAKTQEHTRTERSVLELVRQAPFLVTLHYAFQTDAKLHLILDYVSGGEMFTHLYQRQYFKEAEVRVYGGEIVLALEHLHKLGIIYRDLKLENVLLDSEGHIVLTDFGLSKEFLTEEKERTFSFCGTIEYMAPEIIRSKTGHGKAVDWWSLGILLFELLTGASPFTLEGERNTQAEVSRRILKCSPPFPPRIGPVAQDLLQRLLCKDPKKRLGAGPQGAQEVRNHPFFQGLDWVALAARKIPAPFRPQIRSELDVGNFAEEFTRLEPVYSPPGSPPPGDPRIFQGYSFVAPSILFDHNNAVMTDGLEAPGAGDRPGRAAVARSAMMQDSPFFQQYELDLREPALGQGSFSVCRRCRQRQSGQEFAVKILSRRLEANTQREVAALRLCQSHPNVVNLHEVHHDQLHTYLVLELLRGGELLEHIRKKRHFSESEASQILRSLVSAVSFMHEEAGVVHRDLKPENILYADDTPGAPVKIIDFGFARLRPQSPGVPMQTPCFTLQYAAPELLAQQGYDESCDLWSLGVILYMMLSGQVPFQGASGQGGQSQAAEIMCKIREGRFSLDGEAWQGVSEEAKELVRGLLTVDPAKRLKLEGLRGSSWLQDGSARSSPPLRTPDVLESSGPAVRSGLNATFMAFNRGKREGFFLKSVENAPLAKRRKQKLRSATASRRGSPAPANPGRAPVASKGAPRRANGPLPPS
Chain of Phosphatidylinositol 5-phosphate 4-kinase type-2 alpha (Homo sapiens) (P48426 whole entry): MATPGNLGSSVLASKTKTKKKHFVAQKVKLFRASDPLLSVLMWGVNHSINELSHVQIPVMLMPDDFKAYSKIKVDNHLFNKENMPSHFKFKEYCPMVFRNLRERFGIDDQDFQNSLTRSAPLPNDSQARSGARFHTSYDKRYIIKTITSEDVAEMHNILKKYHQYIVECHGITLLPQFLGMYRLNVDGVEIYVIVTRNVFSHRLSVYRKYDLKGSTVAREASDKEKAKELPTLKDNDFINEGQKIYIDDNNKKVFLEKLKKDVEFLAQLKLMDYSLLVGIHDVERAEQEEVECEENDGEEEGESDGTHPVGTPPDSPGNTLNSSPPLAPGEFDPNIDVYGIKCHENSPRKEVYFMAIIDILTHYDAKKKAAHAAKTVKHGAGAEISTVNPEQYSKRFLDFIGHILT
Chain of Misshapen-like kinase 1 (Homo sapiens) (Q8N4C8 whole entry, looked up): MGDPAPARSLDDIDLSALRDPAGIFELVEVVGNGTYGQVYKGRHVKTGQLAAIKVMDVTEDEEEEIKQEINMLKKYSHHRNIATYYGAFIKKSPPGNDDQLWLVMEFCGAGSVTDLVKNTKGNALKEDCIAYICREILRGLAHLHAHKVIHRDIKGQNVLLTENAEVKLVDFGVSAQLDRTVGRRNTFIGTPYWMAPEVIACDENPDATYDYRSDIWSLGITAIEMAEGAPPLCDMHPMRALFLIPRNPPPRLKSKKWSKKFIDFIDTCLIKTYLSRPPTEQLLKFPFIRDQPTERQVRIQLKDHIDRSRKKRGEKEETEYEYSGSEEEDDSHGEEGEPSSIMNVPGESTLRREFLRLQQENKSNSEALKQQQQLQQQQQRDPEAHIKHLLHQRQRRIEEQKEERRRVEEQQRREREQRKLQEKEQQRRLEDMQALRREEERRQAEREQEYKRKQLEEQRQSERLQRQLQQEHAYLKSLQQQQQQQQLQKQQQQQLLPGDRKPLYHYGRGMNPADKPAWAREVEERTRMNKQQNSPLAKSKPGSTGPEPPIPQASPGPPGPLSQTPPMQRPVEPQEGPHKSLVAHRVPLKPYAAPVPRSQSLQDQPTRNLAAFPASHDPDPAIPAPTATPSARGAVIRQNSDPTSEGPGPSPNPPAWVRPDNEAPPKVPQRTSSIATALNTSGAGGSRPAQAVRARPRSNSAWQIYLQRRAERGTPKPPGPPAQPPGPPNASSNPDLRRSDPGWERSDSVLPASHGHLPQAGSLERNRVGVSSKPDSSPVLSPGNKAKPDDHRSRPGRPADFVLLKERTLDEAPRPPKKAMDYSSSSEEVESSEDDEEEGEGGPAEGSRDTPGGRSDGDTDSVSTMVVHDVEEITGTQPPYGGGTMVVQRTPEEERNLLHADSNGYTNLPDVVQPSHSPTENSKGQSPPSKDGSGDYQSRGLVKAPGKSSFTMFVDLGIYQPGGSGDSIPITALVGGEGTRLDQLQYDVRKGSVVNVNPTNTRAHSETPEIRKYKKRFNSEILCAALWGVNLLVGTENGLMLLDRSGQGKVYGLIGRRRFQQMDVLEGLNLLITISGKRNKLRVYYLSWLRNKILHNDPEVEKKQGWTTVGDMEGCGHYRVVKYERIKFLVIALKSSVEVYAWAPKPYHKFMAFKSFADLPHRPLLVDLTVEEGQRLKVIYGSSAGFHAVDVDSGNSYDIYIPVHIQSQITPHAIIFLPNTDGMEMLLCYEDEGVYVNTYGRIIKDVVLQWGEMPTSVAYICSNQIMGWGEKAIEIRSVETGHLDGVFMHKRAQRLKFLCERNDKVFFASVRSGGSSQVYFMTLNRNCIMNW
Chain of Mitogen-activated protein kinase 1 (Homo sapiens) (P28482 whole entry): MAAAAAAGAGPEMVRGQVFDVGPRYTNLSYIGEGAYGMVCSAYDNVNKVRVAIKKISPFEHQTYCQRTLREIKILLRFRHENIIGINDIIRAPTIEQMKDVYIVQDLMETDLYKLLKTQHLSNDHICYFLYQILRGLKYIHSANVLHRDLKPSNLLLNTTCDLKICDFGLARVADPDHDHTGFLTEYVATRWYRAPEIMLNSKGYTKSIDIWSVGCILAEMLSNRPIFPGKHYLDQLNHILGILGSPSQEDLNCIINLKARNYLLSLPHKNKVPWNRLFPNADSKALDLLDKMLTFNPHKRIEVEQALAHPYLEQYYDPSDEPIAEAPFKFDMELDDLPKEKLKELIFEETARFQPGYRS
Chain of Glycogen synthase kinase-3 alpha (Homo sapiens) (P49840 2-483 limits assumed): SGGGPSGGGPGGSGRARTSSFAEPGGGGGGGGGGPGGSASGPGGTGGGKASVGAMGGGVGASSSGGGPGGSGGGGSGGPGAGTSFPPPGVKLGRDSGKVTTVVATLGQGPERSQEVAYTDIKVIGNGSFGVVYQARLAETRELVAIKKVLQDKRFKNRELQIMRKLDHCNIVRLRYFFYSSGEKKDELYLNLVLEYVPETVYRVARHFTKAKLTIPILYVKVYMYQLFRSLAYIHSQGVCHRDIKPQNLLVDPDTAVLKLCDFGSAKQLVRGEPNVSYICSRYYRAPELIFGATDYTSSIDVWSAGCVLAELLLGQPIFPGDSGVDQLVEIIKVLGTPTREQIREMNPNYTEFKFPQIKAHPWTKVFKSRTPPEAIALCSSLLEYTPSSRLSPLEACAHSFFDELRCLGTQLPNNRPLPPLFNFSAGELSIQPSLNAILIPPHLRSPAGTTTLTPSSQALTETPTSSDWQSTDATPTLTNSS
Chain of Casein kinase I isoform alpha (Homo sapiens) (P48729 2-337 limits assumed): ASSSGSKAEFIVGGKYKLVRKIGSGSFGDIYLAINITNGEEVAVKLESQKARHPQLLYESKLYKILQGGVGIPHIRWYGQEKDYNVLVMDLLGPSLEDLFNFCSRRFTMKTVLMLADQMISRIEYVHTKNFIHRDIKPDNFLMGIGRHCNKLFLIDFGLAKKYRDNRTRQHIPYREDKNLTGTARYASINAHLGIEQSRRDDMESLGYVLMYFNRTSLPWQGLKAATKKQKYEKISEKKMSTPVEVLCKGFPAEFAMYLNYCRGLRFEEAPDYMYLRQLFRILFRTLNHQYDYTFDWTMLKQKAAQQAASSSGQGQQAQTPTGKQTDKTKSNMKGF
Chain of Phosphatidylinositol 5-phosphate 4-kinase type-2 gamma (Homo sapiens) (Q8TBX8 whole entry): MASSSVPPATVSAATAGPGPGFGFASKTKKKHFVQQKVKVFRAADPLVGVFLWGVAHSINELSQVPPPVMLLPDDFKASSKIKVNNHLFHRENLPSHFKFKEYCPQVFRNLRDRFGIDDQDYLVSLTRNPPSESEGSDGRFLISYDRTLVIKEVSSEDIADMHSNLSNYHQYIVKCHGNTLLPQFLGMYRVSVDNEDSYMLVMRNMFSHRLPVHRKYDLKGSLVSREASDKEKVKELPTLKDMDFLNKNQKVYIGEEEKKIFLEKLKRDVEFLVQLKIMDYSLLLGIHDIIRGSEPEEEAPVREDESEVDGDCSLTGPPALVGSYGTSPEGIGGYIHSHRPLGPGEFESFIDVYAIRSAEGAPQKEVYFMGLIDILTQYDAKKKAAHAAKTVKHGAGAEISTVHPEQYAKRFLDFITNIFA
Chain of Glycogen synthase kinase-3 beta (Homo sapiens) (P49841 whole entry, looked up): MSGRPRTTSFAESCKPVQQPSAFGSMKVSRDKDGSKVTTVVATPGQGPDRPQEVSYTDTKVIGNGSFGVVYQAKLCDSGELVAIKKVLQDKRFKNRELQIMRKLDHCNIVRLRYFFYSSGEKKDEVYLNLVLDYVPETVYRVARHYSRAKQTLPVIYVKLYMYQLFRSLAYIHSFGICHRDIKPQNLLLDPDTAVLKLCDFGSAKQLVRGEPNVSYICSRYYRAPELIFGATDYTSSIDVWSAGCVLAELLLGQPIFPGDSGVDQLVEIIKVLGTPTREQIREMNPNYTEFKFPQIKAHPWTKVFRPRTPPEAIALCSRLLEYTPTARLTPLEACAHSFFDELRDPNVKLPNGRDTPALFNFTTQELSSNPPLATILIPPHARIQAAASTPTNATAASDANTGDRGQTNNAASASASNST

`Nc1ncc(-c2cccc([N+](=O)[O-])c2F)cc1-c1ccc2c(c1)CCNC2=O` was tested, and the Activity [1] was “Active”, the Activity [2] was “Active” and the Activity [3] was 25.05%. For the same molecule, the Activity [4] was “Active”, the Activity [5] was “Active” and the Activity [6] was “inactive”.

For `CN(C1CC1)S(=O)(=O)c1ccc(-c2cnc(N)c(-c3ccc4c(c3)CCNC4=O)c2)c(F)c1`, the inhibition [7] was 50%.

`Nc1ncc(-c2cccc3ncsc23)cc1-c1ccc2c(c1)CCNC2=O` showed an inhibition [8] of 50%.

`COc1cc(NS(=O)(=O)C2CC2)ccc1-c1cnc(N)c(-c2ccc3c(c2)CCNC3=O)c1` was tested, and the inhibition [9] was greater than 90%, the inhibition [10] was greater than 90% and the inhibition [11] was 75%. For the same molecule, the inhibition [12] was 0%, the inhibition [13] was 0% and the inhibition [14] was 0%. The inhibition [15] was 75%, the inhibition [16] was 75% and the inhibition [17] was 50%. It also gave an inhibition [18] of 75%, an inhibition [19] of 0% and an inhibition [20] of 50%. For the same molecule, the inhibition [21] was 0% and the inhibition [22] was greater than 90%.

`Nc1ncc(-c2ccc(NS(=O)(=O)C3CC3)cc2OC2CCCCC2)cc1-c1ccc2c(c1)CCNC2=O` showed an inhibition [23] of 50% and an inhibition [24] of 50%.
